Measured values reported in US20150368248A1, “2-SUBSTITUTED-6-BIARYLMETHYLAMINO-9-CYCLOPENTYL-9H-PURINE DERIVATIVES, USE THEREOF AS MEDICAMENTS, AND PHARMACEUTICAL COMPOSITIONS” (UNIVERZITA PALACKEHO V OLOMOUCI, priority 2013, published 2015).

Columns and labels:
HepG2 or PLC cells = test: BrdU incorporation in cultured cells; assay type: cell-based, human; settings: 1 μM, 24 hours
Experimental: (§1) BrdU incorporation into cell nuclei directly indicates cell proliferation. Cultured cells were grown in medium containing 10 μM 5-bromo-2′-deoxy-uridine (BrdU) for 1 hour. After removing labeling medium, cells were fixed and DNA denatured with a fixing/denaturing solution containing 2 M HCl for 30 minutes at 37° C. To analyze BrdU incorporation in vivo, 200 μl Ringer solution containing 1 mg BrdU was intraperitoneally injected into xenografted mice 2 hours prior to analysis. Mice were sacrificed and tumor tissue was fixed in 4% formaldehyde and processed for immunohistochemistry. The incorporation of BrdU into cellular DNA was detected using a monoclonal anti-BrdU antibody (Sigma, St. Louis, USA) followed by incubation with a peroxidase-conjugated secondary antibodies (Calbiochem, LaJolla, USA) at dilutions of 1:10,000.

HepG2 and PLC cells = test: Flow cytometry of cellular DNA content; assay type: cell-based, human; settings: 24 hours
Experimental: The analysis of cellular DNA content was performed with a multicolor BD LSRFortessa cell analyzer (Becton Dickinson, Franklin Lakes, USA). Prior to the cytofluorometric measurement, about 5×10^5 cells were washed with phosphate buffered saline (PBS), fixed in 70% ethanol, washed again with PBS and treated with 100 μg RNAse A/50 μg propidium iodide per ml for 10 minutes to stain cellular DNA. The percentage of cells in the various cell cycle positions were calculated using a software package from the same manufacturer.

[1] = Xenografted tumor formation and drug intervention; assay type: in vivo; settings: SCID, mouse, in vivo, ip; mice, intraperitoneal; read-out: maximum tolerated dose (MTD)
Experimental: as §1
(§2) 5×10^6 human hepatoma cells were re-suspended in 100 μl Ringer solution and subcutaneously injected into severe combined immunodeficient (SCID) mice (Harlan Laboratories, San Pietro, Italy). Tumor volume was determined as described (36). Pharmacological intervention was performed in tumor-bearing mice for 17 days by daily intraperitoneal injection of either 5 mg/kg BA-12 or 1 mg/kg BP-14 in 100 μl of 0.01% DMSO. Control tumor-bearing mice were daily intraperitoneally injected with 100 μl of 0.01% DMSO only. All animal experiments were performed according to the Austrian guidelines for animal care and protection.
(§3) Mice were sacrificed and tumors were fixed as described (37). 4 μm thick, paraffin-embedded sections were stained with hematoxylin and eosin (H&E). For immunohistochemistry, sections were stained with anti-BrdU (Sigma, St. Louis, USA), 1:200. Biotinylated secondary antibodies were used at 1:200. The immunoperoxidase procedure was performed using a Vectastain Elite ABC kit (Vector Laboratories, CA, USA) as described by the manufacturer.

[2] = test system: HepG2- and PLC-derived tumors; test: Xenografted tumor formation and drug intervention; assay type: in vivo
Experimental: as §1, §2, §3

## NC1CCC(Nc2nc(NCc3ccc(-c4ccco4)nc3)c3ncn(C4CCCC4)c3n2)CC1 (stereo not drawn) [BP14, N^2-(4-amino-cyclohexyl)-9-cyclopentyl-N^6-(6-furan-2-yl-pyridin-3-ylmethyl)-9H-purine-2,6-diamine]
HepG2 or PLC cells
  decrease of BrdU incorporation as compared to control: more than 2 fold
HepG2 and PLC cells
  cell cycle distribution: accumulation of HepG2 and PLC cells in the G2 phase
[1]
  MTD at 17 days: 1 mg/kg
[2]; HepG2- and PLC-derived tumors
  decrease of S-phase-positive cells by BrdU incorporation in tumors: 2 fold
[2]; HepG2 and PLC xenografts, 1 mg/kg daily i.p., 17 days
  tumor volumes of xenografts: strongly reduced tumor volumes
[2]; PLC xenograft, 1 mg/kg daily i.p., 17 days
  PLC tumors: regression of PLC tumors
